Reference: patent US8680159B2, “Bradykinin 1 receptor modulating compounds” (Gruenenthal GmbH, priority 2010, dated 2014)

Tests used:
[1] = target: T1, human B1R receptor (CHO K1 cells stably transfected with the human B1R gene) (Homo sapiens, UniProt P46663); assay: Functional study on the bradykinin receptor 1 (B1R), Ca2+ fluorescence (Fluo-4) FLIPR/Novostar assay, hB1R cells; type: cell-based; settings: CHO-K1, read-out: % inhibition (human B1R) at 10 μM
T1 construct: expressed in transfected cells; host or cells: CHO K1 cells (Chinese hamster ovary), stably transfected
T1 sequence (P46663 1-353): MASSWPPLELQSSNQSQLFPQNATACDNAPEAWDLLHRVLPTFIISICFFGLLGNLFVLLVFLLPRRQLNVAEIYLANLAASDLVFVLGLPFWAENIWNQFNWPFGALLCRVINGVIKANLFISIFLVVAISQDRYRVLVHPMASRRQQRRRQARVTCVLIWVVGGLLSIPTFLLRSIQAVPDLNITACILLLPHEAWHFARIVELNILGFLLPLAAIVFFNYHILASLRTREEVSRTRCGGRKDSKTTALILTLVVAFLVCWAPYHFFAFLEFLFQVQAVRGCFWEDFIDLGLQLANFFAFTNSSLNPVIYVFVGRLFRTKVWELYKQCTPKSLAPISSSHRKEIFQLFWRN
Summary of the method: (§1)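 Test compounds (10 μM) were added first and the Ca2+ rise was scored as % activation against Lys-Des-Arg9-bradykinin (≥50 nM, human) or Des-Arg9-bradykinin (≥1 μM, rat). After 6-20 min, the matching agonist was given at its EC80, and % inhibition relative to maximal achievable inhibition was calculated.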

[2] = target: T2, B1R receptor of the rat (CHO K1 cells stably transfected with the B1R gene of the rat) (Rattus norvegicus, UniProt P97583); assay: Functional study on the bradykinin receptor 1 (B1R), Ca2+ fluorescence (Fluo-4) FLIPR/Novostar assay, rB1R cells; type: cell-based; settings: CHO-K1, 10 μM, read-out: % inhibition (rat B1R) at 10 μM
T2 construct: expressed in transfected cells; host or cells: CHO K1 cells (Chinese hamster ovary), stably transfected
T2 sequence (P97583 1-337): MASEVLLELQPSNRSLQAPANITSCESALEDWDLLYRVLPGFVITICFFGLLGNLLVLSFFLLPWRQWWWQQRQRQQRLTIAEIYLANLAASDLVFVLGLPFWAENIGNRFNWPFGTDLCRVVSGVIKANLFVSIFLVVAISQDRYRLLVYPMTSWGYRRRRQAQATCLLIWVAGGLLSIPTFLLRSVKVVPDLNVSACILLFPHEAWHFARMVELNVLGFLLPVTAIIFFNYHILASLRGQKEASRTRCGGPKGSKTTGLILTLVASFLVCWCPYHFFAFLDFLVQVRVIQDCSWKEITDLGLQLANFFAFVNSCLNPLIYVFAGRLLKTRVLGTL
Summary of the method: as §1

| SMILES | inhibition at 10 µM [1] | inhibition at 10 µM [2] |
| --- | --- | --- |
| CCN(C(=O)c1ccc(F)cc1Cl)[C@@H]1CCc2ccc(C(=O)N(C)C3CCN(c4cc(C)nc(C)n4)CC3)cc21 [Example H-167, (3R)-3-[(2-Chloro-4-fluoro-benzoyl)-ethyl-amino]-N-[1-(2,6-dimethyl-pyrimidin-4-yl)-piperidin-4-yl]-N-methyl-2,3-dihydro-1H-indene-5-carboxylic acid amide] | 100% | 109% |
| Cc1cc(N2CCC(N(C)C(=O)c3ccc4c(c3)[C@H](N(C)C(=O)c3ccc(F)cc3Cl)CC4)CC2)nc(C)n1 [Example H-168, (3R)-3-[(2-Chloro-4-fluoro-benzoyl)-methyl-amino]-N-[1-(2,6-dimethyl-pyrimidin-4-yl)-piperidin-4-yl]-N-methyl-2,3-dihydro-1H-indene-5-carboxylic acid amide] | 100% | 104% |
| Cc1cc(N2CCC(N(C)C(=O)c3ccc4c(c3)[C@H](N(C)C(=O)c3ccccc3C)CC4)CC2)nc(C)n1 [Example H-169, (3R)-N-[1-(2,6-Dimethyl-pyrimidin-4-yl)-piperidin-4-yl]-N-methyl-3-[methyl-(2-methyl-benzoyl)-amino]-2,3-dihydro-1H-indene-5-carboxylic acid amide] | 100% | 106% |
| CCN(C(=O)c1ccccc1C)[C@@H]1CCc2ccc(C(=O)N(C)C3CCN(c4cc(C)nc(C)n4)CC3)cc21 [Example H-170, (3R)-N-[1-(2,6-Dimethyl-pyrimidin-4-yl)-piperidin-4-yl]-3-[ethyl-(2-methyl-benzoyl)-amino]-N-methyl-2,3-dihydro-1H-indene-5-carboxylic acid amide] | 100% | 106% |
| Cc1cc(N2CCC(N(C)C(=O)c3ccc4c(c3)[C@H](N(C)C(=O)c3cccnc3C(F)(F)F)CC4)CC2)nc(C)n1 [Example H-171, N-[(1R)-6-[[1-(2,6-Dimethyl-pyrimidin-4-yl)-piperidin-4-yl]-methyl-carbamoyl]-2,3-dihydro-1H-inden-1-yl]-N-methyl-2-(trifluoromethyl)pyridine-3-carboxylic acid amide] | 100% | 104% |
| CN(C)c1cc(N2CCC(N(C)C(=O)c3ccc4c(c3)[C@H](N(C)C(=O)CCC3CCCC3)CC4)CC2)ccn1 [Example H-185, (3R)-3-(3-Cyclopentyl-propanoyl-methyl-amino)-N-[1-(2-dimethylamino-pyridin-4-yl)-piperidin-4-yl]-N-methyl-2,3-dihydro-1H-indene-5-carboxylic acid amide] | 100% | 105% |
| CN(C)c1nccc(N2CCC(N(C)C(=O)c3ccc4c(c3)[C@H](N(C)C(=O)CCC3CCCC3)CC4)CC2)n1 [Example H-186, (3R)-3-(3-Cyclopentyl-propanoyl-methyl-amino)-N-[1-(2-dimethylamino-pyrimidin-4-yl)-piperidin-4-yl]-N-methyl-2,3-dihydro-1H-indene-5-carboxylic acid amide] | 99% | 103% |

The next lines start with the values.

| inhibition at 10 µM [1] | inhibition at 10 µM [2] | SMILES |
| --- | --- | --- |
| 100% | 55% | Cc1cc(N2CCC(N(C)C(=O)c3ccc4c(c3)[C@H](N(C(=O)c3ccccc3Cl)C(C)C)CC4)CC2)nc(C(C)C)n1 [Example H-166, (3R)-3-[(2-Chloro-benzoyl)-isopropyl-amino]-N-[1-(2-isopropyl-6-methyl-pyrimidin-4-yl)-piperidin-4-yl]-N-methyl-2,3-dihydro-1H-indene-5-carboxylic acid amide] |
| 100% | 101% | CC(C)N(C(=O)c1ccc2c(c1)[C@H](NC(=O)c1ccccc1Cl)CC2)C1CCN(c2ccncc2)CC1 [Example H-178, (3R)-3-[(2-Chloro-benzoyl)amino]-N-isopropyl-N-(1-pyridin-4-yl-piperidin-4-yl)-2,3-dihydro-1H-indene-5-carboxylic acid amide] |
| 94% | 100% | Cc1cc(N2CCC(N(C)C(=O)c3ccc4c(c3)[C@H](NC(=O)C(C)(C)F)CC4)CC2)ccn1 [Example H-179, (3R)-3-[(2-Fluoro-2-methyl-propanoyl)amino]-N-methyl-N-[1-(2-methyl-pyridin-4-yl)-piperidin-4-yl]-2,3-dihydro-1H-indene-5-carboxylic acid amide] |
| 89% | 104% | CN(C(=O)c1ccc2c(c1)[C@H](NC(=O)c1ccccc1Cl)CC2)C1CCN(c2nccn2C)CC1 [Example H-180, (3R)-3-[(2-Chloro-benzoyl)amino]-N-methyl-N-[1-(1-methyl-1H-imidazol-2-yl)-piperidin-4-yl]-2,3-dihydro-1H-indene-5-carboxylic acid amide] |
| 77% | 100% | Cc1cncc(N2CCC(N(C)C(=O)c3ccc4c(c3)[C@H](NC(=O)c3ccccc3Cl)CC4)CC2)n1 [Example H-181, (3R)-3-[(2-Chloro-benzoyl)amino]-N-methyl-N-[1-(6-methyl-pyrazin-2-yl)-piperidin-4-yl]-2,3-dihydro-1H-indene-5-carboxylic acid amide] |
| 15% | 59% | CN(C(=O)c1ccc2c(c1)[C@H](NC(=O)c1ccccc1Cl)CC2)C1CCN(c2ccncc2)C(=O)C1 (stereo partly drawn) [Example H-182, (3R)-3-[(2-Chloro-benzoyl)amino]-N-methyl-N-(2-oxo-1-pyridin-4-yl-piperidin-4-yl)-2,3-dihydro-1H-indene-5-carboxylic acid amide] |
| 93% | 101% | CN(C(=O)c1ccc2c(c1)[C@H](NC(=O)c1ccccc1Cl)CC2)C1CCN(c2ccncc2C(F)(F)F)CC1 [Example H-183, (3R)-3-[(2-Chloro-benzoyl)amino]-N-methyl-N-[1-[3-(trifluoromethyl)-pyridin-4-yl]-piperidin-4-yl]-2,3-dihydro-1H-indene-5-carboxylic acid amide] |
| 72% | 105% | CN(C)c1cc(C2CCC(N(C)C(=O)c3ccc4c(c3)[C@H](NC(=O)c3ccccc3Cl)CC4)CC2)ccn1 (stereo partly drawn) [Example H-184, (3R)-3-[(2-Chloro-benzoyl)amino]-N-[4-(2-dimethylamino-pyridin-4-yl)-cyclohexyl]-N-methyl-2,3-dihydro-1H-indene-5-carboxylic acid amide] |
